Key:
human P2X3 receptor = human P2X3 receptor (Homo sapiens (Human), UniProt P56373); experiment: Evaluation of human P2X3 receptor inhibitory activity (ATP-induced Fluo-3 fluorescence, FDSS 3000); assay type: cell-based; conditions: C6BU-1 cell transfected with human P2X3 receptor gene
In short: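 Human P2X3 inhibition read as ATP-evoked Fluo-3 calcium fluorescence; compound preincubated, then 50 nM ATP solution (concentration as dispensed) added and fluorescence followed 3 min. Response taken as peak-to-baseline fluorescence ratio per well; IC50 derived from concentration–response.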

CYP3A4 = CYP3A4 (Homo sapiens (Human), UniProt P08684); experiment: CYP3A4 fluorescent MBI test; assay type: in vitro ADME; conditions: pre-reaction time 0 or 30 minutes; substrate 7-BFC; CYP3A4 expressed in Escherichia coli
CYP3A4, sequence (P08684 whole entry): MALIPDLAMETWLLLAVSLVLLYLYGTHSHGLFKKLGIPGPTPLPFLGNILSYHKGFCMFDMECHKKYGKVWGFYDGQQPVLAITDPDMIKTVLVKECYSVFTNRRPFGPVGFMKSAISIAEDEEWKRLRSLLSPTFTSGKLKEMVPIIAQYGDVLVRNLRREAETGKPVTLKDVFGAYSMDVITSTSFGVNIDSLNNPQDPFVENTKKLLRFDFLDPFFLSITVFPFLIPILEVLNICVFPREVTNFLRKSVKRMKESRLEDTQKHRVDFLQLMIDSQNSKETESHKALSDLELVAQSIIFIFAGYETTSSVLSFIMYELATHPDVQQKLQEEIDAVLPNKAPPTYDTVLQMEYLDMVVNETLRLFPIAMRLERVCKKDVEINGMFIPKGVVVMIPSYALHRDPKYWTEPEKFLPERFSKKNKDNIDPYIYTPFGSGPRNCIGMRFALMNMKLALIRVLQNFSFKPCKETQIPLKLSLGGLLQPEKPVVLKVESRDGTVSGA
Protocol: The CYP3A4 fluorescent MBI test is a test of investigating enhancement of CYP3A4 inhibition of a compound by a metabolism reaction, and the test is performed using, as CYP3A4 enzyme expressed in Escherichia coli and employing, as an index, a reaction in which 7-benzyloxytrifluoromethylchmarin (BFC) is debenzylated by the CYP3A4 enzyme to produce a metabolite, 7-hydroxytrifluoromethylchmarin (HFC) emitting fluorescent light.
The reaction conditions were as follows: substrate, 5.6 μmol/L 7-BFC; pre-reaction time, 0 or 30 minutes; reaction time, 15 minutes; reaction temperature, 25° C.
An enzyme in a K-Pi buffer (pH 7.4) and a test drug solution as a pre-reaction solution were added to a 96-well plate at the composition of the pre-reaction, a part of it was transferred to another 96-well plate so that it was 1/10 diluted by a substrate in a K-Pi buffer, NADPH as a co-factor was added to initiate a reaction as an index (without preincubation) and, after a predetermined time of a reaction, acetonitrile: 0.5 mol/L Tris (trishydroxyaminomethane)=4:1 was added to stop the reaction. In addition, NADPH was added to a remaining preincubation solution to initiate a preincubation (with preincubation) and, after a predetermined time of a preincubation, a part was transferred to another plate so that it was 1/10 diluted with a substrate and a K-Pi buffer to initiate a reaction as an index, After a predetermined time of a reaction, acetonitrile: 0.5 mol/L Tris (trishydroxyaminomethane)=4:1 was added to stop the reaction. For the plate on which each index reaction had been performed, a fluorescent value of 7-HFC which is a metabolite was measured with a fluorescent plate reader. (Ex=420 nm, Em=535 nm).
Addition of only DMSO which is a solvent dissolving a drug to a reaction system was adopted as a control (100%), remaining activity (%) was calculated at each concentration of a test drug added as the solution, and IC50 was calculated by reverse-presumption by a logistic model using a concentration and an inhibition rate. When a difference between IC50 values is 5 or more, this was defined as (+) and, when the difference is 3 μmol/L or less, this was defined as (−).

human P2X3 receptor, sequence (P56373 whole entry): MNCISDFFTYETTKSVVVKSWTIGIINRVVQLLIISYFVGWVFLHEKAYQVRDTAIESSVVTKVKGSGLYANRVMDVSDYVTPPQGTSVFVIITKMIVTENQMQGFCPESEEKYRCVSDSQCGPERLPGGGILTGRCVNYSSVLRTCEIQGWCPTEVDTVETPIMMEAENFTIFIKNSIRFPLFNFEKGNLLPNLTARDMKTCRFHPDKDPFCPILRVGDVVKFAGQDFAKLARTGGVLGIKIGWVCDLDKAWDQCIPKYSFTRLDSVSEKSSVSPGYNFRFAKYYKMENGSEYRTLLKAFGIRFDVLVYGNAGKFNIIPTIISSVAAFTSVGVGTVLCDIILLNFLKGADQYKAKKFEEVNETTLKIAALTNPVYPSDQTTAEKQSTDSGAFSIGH

Compound: CC(C)Oc1ccc(Nc2cc(=O)n(C[C@H](C)C(=O)O)c(=O)n2Cc2ccc(Cl)cc2)cc1Cl [I-100]
- IC50 (human P2X3 receptor): 9 nM
- IC50 difference (CYP3A4): < 3000 nM
